Measurements: the supplement of paper PMC10307832

Tests used:
Test in all cases: relative viability (nuclei count vs DMSO), 5 days (fraction); higher = more cells survive
Vemurafenib + Linsitinib = compound: CCCS(=O)(=O)Nc1ccc(F)c(C(=O)c2c[nH]c3ncc(-c4ccc(Cl)cc4)cc23)c1F [Vemurafenib] + C[C@]1(O)C[C@@H](c2nc(-c3ccc4ccc(-c5ccccc5)nc4c3)c3c(N)nccn32)C1 [Linsitinib] (partner 1 µM)
Outline: (§1)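 Each reported value is a median over duplicate plates. It expresses relative viability: treated-well nuclei count divided by vehicle-well nuclei count. Lung cancer cell lines in 1536-well plates were dosed by pin tool a day after seeding, alone with one drug or with a fixed anchor-drug dose plus five library-drug doses (not always all listed) in √10 steps, and nuclei were counted after 5 days.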

Vemurafenib + Decitabine = compound: CCCS(=O)(=O)Nc1ccc(F)c(C(=O)c2c[nH]c3ncc(-c4ccc(Cl)cc4)cc23)c1F [Vemurafenib] + Nc1ncn([C@H]2C[C@H](O)[C@@H](CO)O2)c(=O)n1 [Decitabine] (partner 2 µM)
Outline: as §1

Alpelisib + Olaparib = compound: Cc1nc(NC(=O)N2CCC[C@H]2C(N)=O)sc1-c1ccnc(C(C)(C)C(F)(F)F)c1 [Alpelisib] + O=C(c1cc(Cc2n[nH]c(=O)c3ccccc23)ccc1F)N1CCN(C(=O)C2CC2)CC1 [Olaparib] (partner 8 µM)
Outline: as §1

Alpelisib + Navitoclax = compound: Cc1nc(NC(=O)N2CCC[C@H]2C(N)=O)sc1-c1ccnc(C(C)(C)C(F)(F)F)c1 [Alpelisib] + CC1(C)CCC(c2ccc(Cl)cc2)=C(CN2CCN(c3ccc(C(=O)NS(=O)(=O)c4ccc(N[C@H](CCN5CCOCC5)CSc5ccccc5)c(S(=O)(=O)C(F)(F)F)c4)cc3)CC2)C1 [Navitoclax] (partner 0.5 µM)
Outline: as §1

Row | Cell Line | relative viability (Vemurafenib + Linsitinib; first compound 0.03162 µM) | relative viability (Vemurafenib + Linsitinib; first compound 0.1 µM) | relative viability (Vemurafenib + Linsitinib; first compound 0.3162 µM) | relative viability (Vemurafenib + Linsitinib; first compound 1 µM) | relative viability (Vemurafenib + Decitabine; first compound 0.03162 µM) | relative viability (Vemurafenib + Decitabine; first compound 0.1 µM) | relative viability (Vemurafenib + Decitabine; first compound 1 µM) | relative viability (Alpelisib + Olaparib; first compound 0.04 µM) | relative viability (Alpelisib + Olaparib; first compound 0.1265 µM) | relative viability (Alpelisib + Olaparib; first compound 0.4 µM) | relative viability (Alpelisib + Olaparib; first compound 1.265 µM) | relative viability (Alpelisib + Olaparib; first compound 4 µM) | relative viability (Alpelisib + Navitoclax; first compound 0.04 µM) | relative viability (Alpelisib + Navitoclax; first compound 0.1265 µM) | relative viability (Alpelisib + Navitoclax; first compound 0.4 µM) | relative viability (Alpelisib + Navitoclax; first compound 1.265 µM) | relative viability (Alpelisib + Navitoclax; first compound 4 µM) | relative viability (Vemurafenib + Decitabine; first compound 0.3162 µM)
1 | LU99A | 0.484 | 0.445 | 0.586 | 0.479 | 0.843 | 0.907 | 0.719 | 0.245 | 0.282 | 0.268 | 0.287 | 0.232 | 0.785 | 0.716 | 0.773 | 0.546 | 0.426 | –
2 | NCI-H2009 | 1.19 | 1.03 | 1.09 | 1.06 | 0.394 | 0.341 | 0.438 | 0.756 | 0.659 | 0.674 | 0.647 | 0.599 | 1.24 | 1.14 | 1.16 | 1.08 | 1.13 | 0.341
3 | LCLC-97TM1 | 0.181 | 0.212 | 0.175 | 0.157 | – | 0.236 | 0.213 | 0.379 | 0.396 | 0.304 | 0.197 | 0.116 | 0.411 | 0.371 | 0.33 | 0.206 | 0.142 | 0.242
4 | NCI-H1915 | 1.05 | 1 | 1.05 | 1.04 | 0.244 | 0.253 | 0.244 | 0.264 | 0.288 | 0.303 | 0.236 | 0.235 | 0.8 | 0.829 | 0.82 | 0.764 | 0.504 | 0.26
5 | EKVX | 0.942 | – | 1.03 | 1.02 | 0.368 | – | 0.397 | 0.856 | 0.897 | 1.1 | 0.753 | 0.512 | 0.969 | 0.903 | 1.12 | 0.84 | 0.75 | 0.37
6 | HCC-78 | 0.627 | 0.458 | 0.679 | 0.502 | 0.61 | 0.57 | 0.744 | 0.694 | 0.825 | 0.857 | 0.44 | 0.521 | 0.745 | 0.609 | 0.738 | 0.373 | 0.518 | 0.705
7 | A549 | 0.584 | 0.444 | 0.515 | 0.567 | 0.163 | 0.227 | 0.224 | 0.301 | – | 0.434 | 0.3 | 0.23 | 1.23 | 1.18 | 1.06 | 0.851 | 0.715 | 0.155
8 | NCI-H2126 | 0.804 | 0.699 | 0.757 | 0.681 | 0.559 | 0.542 | 0.552 | 0.887 | 0.864 | 0.871 | 0.76 | 0.659 | 0.768 | 0.865 | 0.816 | 0.618 | 0.525 | 0.599
9 | HCC-827 | 0.878 | – | 0.924 | 0.926 | 0.27 | – | 0.35 | 0.601 | 0.678 | 0.768 | 0.499 | 0.503 | 1 | 1.02 | 1.06 | 1.01 | 0.908 | 0.326
10 | LK-2 | 0.409 | 0.525 | 0.811 | 0.417 | 0.243 | 0.342 | 0.254 | 0.636 | 0.464 | 0.74 | 0.301 | 0.328 | 0.751 | 0.72 | 0.697 | 0.374 | 0.507 | 0.321
11 | PC-14 | 0.93 | – | 0.922 | 0.995 | 0.223 | – | 0.237 | 0.263 | 0.348 | 0.512 | 0.276 | 0.295 | 0.984 | 1.08 | 1.16 | 0.913 | 0.945 | 0.181
12 | NCI-H1355 | 0.713 | 0.709 | 0.801 | 0.758 | 0.344 | 0.348 | 0.37 | 0.747 | 0.727 | 0.807 | 0.629 | 0.519 | 0.89 | 1.02 | 1.07 | 0.927 | 0.84 | 0.363
13 | LXF-289 | 0.877 | 0.919 | 0.992 | 1.04 | 0.329 | 0.303 | 0.35 | 1.04 | 1.04 | 1.12 | 0.997 | 0.942 | 0.91 | 0.972 | 0.968 | 0.917 | 0.939 | 0.377
14 | LOU-NH91 | 0.864 | 0.535 | – | 1.01 | 0.74 | 0.638 | 0.863 | 0.915 | 0.87 | 0.844 | 0.65 | 0.777 | 0.707 | 0.637 | 0.526 | 0.504 | 0.343 | 0.703
15 | NCI-H2405 | 0.952 | 0.776 | – | 0.983 | 0.668 | 0.678 | 0.736 | 0.905 | 0.864 | 0.898 | 0.657 | 0.71 | 1.05 | 0.894 | 0.798 | 0.596 | 0.789 | –
16 | SK-MES-1 | 1.06 | 0.892 | 1.03 | 1.07 | 0.384 | 0.334 | 0.386 | 0.616 | 0.556 | 0.786 | 0.622 | 0.544 | 1.16 | 1.25 | 1.29 | 1.02 | 0.793 | 0.38
17 | NCI-H322M | 0.851 | – | 0.964 | 0.885 | 0.721 | – | 0.707 | 0.804 | 0.82 | 0.791 | 0.671 | 0.53 | 0.908 | 1.07 | 1.29 | 0.941 | 0.936 | 0.86
18 | NCI-H23 | 0.621 | 0.605 | 0.715 | 0.59 | 0.287 | 0.272 | 0.322 | 0.254 | 0.269 | 0.321 | 0.232 | 0.289 | 0.708 | 0.856 | 0.851 | 0.532 | 0.535 | 0.353
